Assay results reported in ChEMBL document CHEMBL1201862, “PubChem BioAssay data set” (2004).
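In this assay, cells in 96-well plates receive the compound at five concentrations for 48 hours. Endpoints are linearly interpolated between the surrounding concentrations. Here, GI50 denotes the concentration required for 50% inhibition of growth.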 The source made the active and inactive calls. Rule as the data show it: active = GI50 up to about 1.1 µM and inactive = higher.

How the values were obtained:
Experiment in all cases: NCI anticancer screen, dose series, 48 h
RXF 631 = system: RXF 631
LXFL 529 = system: LXFL 529
DMS-114 = system: DMS-114
DMS-273 = system: DMS-273
XF498 = system: XF498
SNB-78 = system: SNB-78
KM-20L2 = system: KM-20L2
HOP-18 = system: HOP-18
M19-MEL = system: M19-MEL

Row | Compound | GI50 (RXF 631) | GI50 (LXFL 529) | GI50 (DMS-114) | GI50 (DMS-273) | GI50 (XF498) | GI50 (SNB-78) | GI50 (KM-20L2) | GI50 (HOP-18) | GI50 (M19-MEL)
1 | CC1(CO)OC1COCc1ccccc1 (stereo unspecified) | > 100 µM (inactive) | > 100 µM (inactive) | > 100 µM (inactive) | > 100 µM (inactive) | > 100 µM (inactive) | > 100 µM (inactive) | > 100 µM (inactive) |  | 
2 | CCCCCCCCCCCCCCCC(=O)OCC1OC(n2cc(F)c(=O)[nH]c2=O)C(NC(=O)N(CCCl)N=O)C(O)C1O (stereo unspecified) | 3.08 µM (inactive) | 5.3 µM (inactive) | 1.12 µM (inactive) | 0.343 µM (active) |  | 3.85 µM (inactive) | 5.15 µM (inactive) | 16.4 µM (inactive) | 2.82 µM (inactive)
3 | CC(=O)O[C@H]1C(=O)[C@@]2(C)[C@H]([C@H](OC(=O)c3ccccc3)[C@]3(O)C[C@H](OC(=O)[C@H](O)[C@@H](NC(=O)c4ccccc4)c4ccccc4)C(C)=C1C3(C)C)[C@]1(OC(C)=O)CO[C@@H]1C[C@@H]2O [PACLITAXEL] |  | 0.528 µM (active) |  | 0.00313 µM (active) | 0.00348 µM (active) | 0.00982 µM (active) |  | 0.157 µM (active) | 
4 | COc1cc(-c2cccs2)sc1-c1cccs1 |  | 45 µM (inactive) | 30 µM (inactive) | 12.5 µM (inactive) |  | 36.2 µM (inactive) | 26.7 µM (inactive) | 1.58 µM (inactive) | 32.8 µM (inactive)
5 | COC1N(C2CC(O)C(CO)O2)C(=O)NC(=O)C1(F)Br (stereo unspecified) | 6.84 µM (inactive) | 24.4 µM (inactive) | 43.9 µM (inactive) | 14.7 µM (inactive) | 17.3 µM (inactive) | > 50 µM (inactive) | 16.6 µM (inactive) | > 50 µM (inactive) | 
6 | S=c1sc2c(Cl)nc(Cl)nc2n1-c1ccccc1 |  | 17.9 µM (inactive) | 14.2 µM (inactive) | 45.9 µM (inactive) | 94.2 µM (inactive) | 13.3 µM (inactive) | 52.6 µM (inactive) | > 100 µM (inactive) | 16.4 µM (inactive)
7 | O=C1C=C(NCCc2ccccc2)c2ccccc2C1=O |  | 5.86 µM (inactive) | 1.92 µM (inactive) | 2.77 µM (inactive) |  | 16.6 µM (inactive) | 6.95 µM (inactive) | 1.63 µM (inactive) | 0.276 µM (active)
8 | C=CCCCCCCCCC(=O)NS(=O)(=O)c1ccccc1 | > 100 µM (inactive) | > 100 µM (inactive) | > 100 µM (inactive) | 88.1 µM (inactive) | > 100 µM (inactive) | > 100 µM (inactive) | > 100 µM (inactive) | 40.9 µM (inactive) | > 100 µM (inactive)
9 | CC(=O)NNc1nc(C)c(C(=O)NNC(=O)C(=O)Nc2ccc(C)cc2[N+](=O)[O-])s1 | > 100 µM (inactive) | > 100 µM (inactive) | > 100 µM (inactive) | > 100 µM (inactive) |  | > 100 µM (inactive) | > 100 µM (inactive) | > 100 µM (inactive) | 60.4 µM (inactive)
10 | CCCCC(C(=O)CCC(=O)Nc1ccc(Cl)c(Cl)c1)C(=O)C(C)C (stereo unspecified) |  | 34.8 µM (inactive) | > 100 µM (inactive) | 52.4 µM (inactive) |  | > 100 µM (inactive) | > 100 µM (inactive) | > 100 µM (inactive) | > 100 µM (inactive)
11 | COc1ccc(C2Oc3c(cc(O)c(OC)c3C)[C@@H]2C)cc1OC (stereo partly specified) | > 100 µM (inactive) | 65.9 µM (inactive) | 33 µM (inactive) | 47.6 µM (inactive) | 51.8 µM (inactive) | 69.8 µM (inactive) | > 100 µM (inactive) | > 100 µM (inactive) | 86.1 µM (inactive)
12 | O=C(Nc1nnn[nH]1)c1nc(O)cc(-c2ccccc2)n1 |  | > 100 µM (inactive) | > 100 µM (inactive) |  | > 100 µM (inactive) | > 100 µM (inactive) | > 100 µM (inactive) |  | > 100 µM (inactive)
13 | COc1ccc(/C=C2\C(=O)N(C(=O)c3ccc(NC(C)=O)cc3)N=C2C)cc1OC |  |  | > 100 µM (inactive) | > 100 µM (inactive) | > 100 µM (inactive) | > 100 µM (inactive) |  | 14.6 µM (inactive) | > 100 µM (inactive)
14 | CCOC(=O)C1(Cc2ccccc2)CCCCCN1 (stereo unspecified) | > 100 µM (inactive) | > 100 µM (inactive) | > 100 µM (inactive) | > 100 µM (inactive) |  | > 100 µM (inactive) | > 100 µM (inactive) | > 100 µM (inactive) | > 100 µM (inactive)
15 | CSC(=N\c1ccccc1)/N=C(\SCc1ccccc1)N(C)C | 1.38 µM (inactive) | 0.454 µM (active) | 1.09 µM (active) | 0.59 µM (active) | 1.33 µM (inactive) | 1.63 µM (inactive) |  | 0.774 µM (active) | 1.66 µM (inactive)
16 | O=c1[nH]cc(OCC(F)(F)F)c(=O)[nH]1 | > 100 µM (inactive) | > 100 µM (inactive) | > 100 µM (inactive) | > 100 µM (inactive) | > 100 µM (inactive) | > 100 µM (inactive) | > 100 µM (inactive) | > 100 µM (inactive) | > 100 µM (inactive)
17 | COc1ccc(C2C(C)C(=O)C(C)C(c3ccc(OC)cc3)N2N=O)cc1 (stereo unspecified) | > 95.3 µM (inactive) | > 750 µM (inactive) | > 750 µM (inactive) | > 514 µM (inactive) | 166 µM (inactive) | 121 µM (inactive) | > 925 µM (inactive) | > 100 µM (inactive) | > 750 µM (inactive)
18 | C=CCc1cc(-c2cc(CC=C)c(O)c(CN(CC)CC)c2)cc(CN(CC)CC)c1O | 14.6 µM (inactive) | 46.6 µM (inactive) | > 52.6 µM (inactive) | 32.2 µM (inactive) |  | > 100 µM (inactive) | 14.5 µM (inactive) | > 100 µM (inactive) | 18.3 µM (inactive)
19 | CC(C)C12C=CC(C)(CC1)n1c(=O)c3cc4ccccc4cc3c(=O)n12 (stereo unspecified) | 54.3 µM (inactive) | 34 µM (inactive) | 41.9 µM (inactive) | 40.6 µM (inactive) | 26.4 µM (inactive) | > 100 µM (inactive) | 31.7 µM (inactive) |  | 66.8 µM (inactive)
20 | Oc1cc(-c2ccc[nH]2)nc2cc3c(cc12)OCO3 | 47.5 µM (inactive) | 28.4 µM (inactive) |  | 32.2 µM (inactive) | 21.1 µM (inactive) |  |  |  | 39 µM (inactive)
21 | CC(C)COC(=O)N1N=NC2C3OC(CC3=O)C21 (stereo unspecified) |  | > 100 µM (inactive) | > 100 µM (inactive) | > 100 µM (inactive) | > 100 µM (inactive) |  | > 100 µM (inactive) | > 100 µM (inactive) | > 100 µM (inactive)
22 | Nc1nc(N)c2ncn(CCCC(c3ccccc3)P(=O)(O)O)c2n1 (stereo unspecified) |  | > 100 µM (inactive) | > 100 µM (inactive) | > 100 µM (inactive) |  | > 100 µM (inactive) | > 100 µM (inactive) | > 100 µM (inactive) | > 100 µM (inactive)
23 | COC(=O)Nc1nc2cc(Br)ccc2[nH]1 |  | 47.2 µM (inactive) | 23.1 µM (inactive) | 16 µM (inactive) | 23.6 µM (inactive) | 42.4 µM (inactive) | 21.2 µM (inactive) | 64.1 µM (inactive) | 28.8 µM (inactive)
24 | CCOC(=O)C1S/C(=N/c2ccc(Cl)cc2C)N=C1C (stereo unspecified) | 21.1 µM (inactive) | 18 µM (inactive) | 12.9 µM (inactive) | 24.2 µM (inactive) | 20.9 µM (inactive) | 20.4 µM (inactive) | 17.4 µM (inactive) | 45.8 µM (inactive) | 20 µM (inactive)
25 | CCOC(=O)C1=C(C)N(NC(N)=O)C2(N)N(NC(N)=O)C(C)=C(C(=O)OCC)C12C(=O)OCC (stereo unspecified) |  | > 100 µM (inactive) | > 100 µM (inactive) | > 100 µM (inactive) | > 100 µM (inactive) |  | > 100 µM (inactive) |  | > 100 µM (inactive)
26 | Cc1cc(N(CCC#N)S(=O)(=O)c2ccccc2)ccc1/C=C1N=C(/C=C/c2ccccc2)OC\1=O |  | 87.3 µM (inactive) | 94.4 µM (inactive) | > 100 µM (inactive) | > 100 µM (inactive) | 80.5 µM (inactive) | > 100 µM (inactive) |  | 
27 | COc1ccc(C=O)c([N+](=O)[O-])c1 | 57.7 µM (inactive) |  | 24 µM (inactive) | 25.4 µM (inactive) | 13.3 µM (inactive) | 42.4 µM (inactive) | 14 µM (inactive) | 38.8 µM (inactive) | 63.5 µM (inactive)
28 | O=[N+]([O-])c1nccn1COCCBr |  | > 100 µM (inactive) | > 100 µM (inactive) |  | > 100 µM (inactive) |  | > 100 µM (inactive) |  | > 100 µM (inactive)
